# From patent US9492460B2, “Carbazole compounds useful as bromodomain inhibitors” (Bristol-Myers Squibb Company, priority 2013, dated 2016)
# Target: T1, bromodomain BRD4 (44-168), BRD4 (333-460), and BRD4 (1-477 or 44-460) (Homo sapiens, UniProt O60885)
# T1 construct: BRD4(44-168), BRD4(333-460), BRD4(44-460), BRD4(1-477), O60885-1; fused on or other part: N-terminal BirA biotinylation motif, biotinylated; The TVMV-cleavable His6 tag is removed, except in some BRD4(44-460) runs detected with anti-His terbium cryptate
# Test: Time Resolved Fluorescence Resonance Energy Transfer (TR-FRET) binding assay
# Settings: one of the FRET assays described
row,IC50,Structure (SMILES)
1,< 500 nM,"Cc1noc(C)c1-c1cc(C(=O)N(C)C)c2c3cc(C(=O)N4C[C@@H](C)O[C@@H](C)C4)ccc3n(Cc3ccccc3)c2c1 [Example 118, 9-benzyl-2-(3,5-dimethylisoxazol-4-yl)-6-(cis-2,6-dimethylmorpholine-4-carbonyl)-N,N-dimethyl-9H-carbazole-4-carboxamide]"
2,< 50 nM,"CNC(=O)c1cc(-c2c(C)noc2C)cc2c1c1cc(C(=O)N3CC(F)(F)C3)ccc1n2C(C)c1ccccc1 (stereo not drawn) [Example 119, 6-((3,3-difluoro-1-azetidinyl)carbonyl)-2-(3,5-dimethyl-4-isoxazolyl)-N-methyl-9-(1-phenylethyl)-9H-carbazole-4-carboxamide]"
3,< 500 nM,"Cc1noc(C)c1-c1cc(C(=O)N(C)C)c2c3cc(C(=O)N4CC(F)(F)C4)ccc3n(C(C)c3ccccc3)c2c1 (stereo not drawn) [Example 120, 6-((3,3-difluoro-1-azetidinyl)carbonyl)-2-(3,5-dimethyl-4-isoxazolyl)-N,N-dimethyl-9-(1-phenylethyl)-9H-carbazole-4-carboxamide]"
4,< 50 nM,"CCNC(=O)c1cc(-c2c(C)noc2C)cc2c1c1cc(C(=O)N3CC(F)C3)ccc1n2Cc1ccc(F)cc1 [Example 126, 2-(3,5-dimethyl-4-isoxazolyl)-N-ethyl-6-((3-fluoro-1-azetidinyl)carbonyl)-9-(4-fluorobenzyl)-9H-carbazole-4-carboxamide]"
5,< 500 nM,"Cc1noc(C)c1-c1cc(C(=O)NCC(C)C)c2c3cc(C(=O)N4CC(F)C4)ccc3n(Cc3ccc(F)cc3)c2c1 [Example 128, 2-(3,5-dimethyl-4-isoxazolyl)-6-((3-fluoro-1-azetidinyl)carbonyl)-9-(4-fluorobenzyl)-N-isobutyl-9H-carbazole-4-carboxamide]"
6,< 500 nM,"Cc1noc(C)c1-c1cc(C(=O)N2CC(F)C2)c2c3cc(C(=O)N4CC(F)C4)ccc3n(Cc3ccc(F)cc3)c2c1 [Example 129, 2-(3,5-dimethyl-4-isoxazolyl)-4,6-bis((3-fluoro-1-azetidinyl)carbonyl)-9-(4-fluorobenzyl)-9H-carbazole]"

# More lines, now with the values behind:
row,Structure (SMILES),IC50
1,"Cc1noc(C)c1-c1cc(C#N)c2c3cc(C(=O)N4CC(F)C4)ccc3n(Cc3cccc(F)c3)c2c1 [Example 121, 2-(3,5-dimethyl-4-isoxazolyl)-6-((3-fluoro-1-azetidinyl)carbonyl)-9-(3-fluorobenzyl)-9H-carbazole-4-carbonitrile]",< 500 nM
2,"Cc1nocc1-c1cc(C(N)=O)c2c3cc(C(=O)N4CCOCC4)ccc3n(Cc3ccc(F)cc3)c2c1 [Example 122, 9-(4-fluorobenzyl)-2-(3-methyl-4-isoxazolyl)-6-(4-morpholinylcarbonyl)-9H-carbazole-4-carboxamide]",< 50 nM
3,"Cc1oncc1-c1cc(C(N)=O)c2c3cc(C(=O)N4CCOCC4)ccc3n(Cc3ccc(F)cc3)c2c1 [Example 123, 9-(4-fluorobenzyl)-2-(5-methylisoxazol-4-yl)-6-(morpholine-4-carbonyl)-9H-carbazole-4-carboxamide]",< 500 nM
4,"CCCNC(=O)c1cc(-c2c(C)noc2C)cc2c1c1cc(C(=O)N3CC(F)C3)ccc1n2Cc1ccc(F)cc1 [Example 124, 2-(3,5-dimethyl-4-isoxazolyl)-6-((3-fluoro-1-azetidinyl)carbonyl)-9-(4-fluorobenzyl)-N-propyl-9H-carbazole-4-carboxamide]",< 50 nM
5,"Cc1noc(C)c1-c1cc(C(=O)NC2CC2)c2c3cc(C(=O)N4CC(F)C4)ccc3n(Cc3ccc(F)cc3)c2c1 [Example 125, N-cyclopropyl-2-(3,5-dimethyl-4-isoxazolyl)-6-((3-fluoro-1-azetidinyl)carbonyl)-9-(4-fluorobenzyl)-9H-carbazole-4-carboxamide]",< 50 nM
6,"Cc1noc(C)c1-c1cc(C(=O)NC(C)C)c2c3cc(C(=O)N4CC(F)C4)ccc3n(Cc3ccc(F)cc3)c2c1 [Example 127, 2-(3,5-dimethyl-4-isoxazolyl)-6-((3-fluoro-1-azetidinyl)carbonyl)-9-(4-fluorobenzyl)-N-isopropyl-9H-carbazole-4-carboxamide]",< 7500 nM
